This note sets out measurements from patent US20230414644A1, “ORAL CANINE FEED AND METHODS FOR CONTROLLING FLEA INFESTATIONS IN A CANINE” (In the Bowl Animal Health, Inc., priority 2021, published 2023).

For the experiment, the system named is Ctenocephalides felis. The experiment is described as follows: Efficacy of spinosyn administered per os (liquid formulation, daily) to dogs against experimental flea infestation, comb counts of live adult fleas. It is filed as in vivo. The settings on record: for percent reduction in live adult flea counts: day 14 comb count; for Efficacy (percent reduction in live adult flea counts): day 37, after the five day wash out period. An excerpt: Efficacy of Spinosyn Administered Per Os, i.e. by Mouth, to Dogs for the Treatment and Control of Ctenocephalides felis.
Methods: A pool of 40 dogs are to be preliminarily infested with ˜100 unfed adult C. felis in order to produce a pool of dogs that can suitably sustain a reliable infestation rate of approximately 50% of live fleas over a 48-hour period. The dogs with the highest live flea counts are to be randomly allocated to 4 treatment groups (6 dogs per group) based on their pre-treatment flea counts from experimental infestations. The first treatment group is to be the control group and groups 2-4 are to be the test groups.
The dogs are to be housed individually during the study period and are to be fed a commercial dry dog food ration with ad libitum access to water.
Dogs in the control group are not to receive a spinosyn or any other flea control treatment. Each dog in test groups 2-4 is to be offered its daily ration (dry food) and the individual doses of liquid formulation are to be administered after the individual dog has eaten at least 25% of its total daily ration. After receiving the dose of a spinosyn the dogs are to be allowed to continue eating. This mimics incorporating the spinosyn in feed. Each dog in test groups 2-4 and the control group is to be experimentally infested with 100 unfed adult fleas on test days −1, 5, 12, 19, 28 and 35. Comb counts for live adult fleas are to be conducted on days 2, 7, 14, 21, 30 and 37. The final experimental infestation is to occur five days after the last daily dose of spinosyn.

For spinosad, the “percent reduction in live adult flea counts” value is given as 100% (0.25 mg/kg daily oral (Group 2)), 100% (0.50 mg/kg daily oral (Group 3)) and 100% (1.0 mg/kg daily oral (Group 4)). Further, the “Efficacy (percent reduction in live adult flea counts)” value runs as follows: (0.50 mg/kg daily oral days 0-29 (Group 3)) “over 98%”; (1.0 mg/kg daily oral days 0-29 (Group 4)) “over 98%”.
